Experiment [1] relates to transplanted human neural stem cells (HNSCs). As to the kind of experiment: Neuronal differentiation of transplanted HNSCs (BrdU+/β-III tubulin+ cell counts, fluorescent immunohistochemistry). The experiment is classed as in vivo, APP23 and wild-type mice. The settings on record: wild-type mice, CA1 hippocampal region only; p<0.05; 25 mg/kg. As for the experimental part:
(§1) HNSCs originally isolated from fetal cortical tissue were purchased from BioWhittaker (Walkersville, Md.) and the cells were expanded and passaged in a serum-free culture medium, as described in detail previously (Brannen and Sugaya, 2000). Briefly, HNSCs were cultured in 20 ml serum-free supplemented growth medium consisting of Ham's F12/DMEM (Gibco, Burlington, ON), EGF (20 ng/ml, R & D Systems), FGF (20 ng/ml, R & D Systems, Minneapolis, Minn.), B27 (1:50, Gibco), heparin (5 μg/ml, Sigma, St. Louis, Mo.) and antibiotic-antimycotic mixure (1:100, Gibco) at 37° C. in a 5% humidified incubation chamber (Brannen and Sugaya, 2000). Prior to transplantation, HNSCs were incubated with 3 μM bromo-deoxyuridine (BrdU, Sigma) for 48 hr to label cell nuclei to distinguish them from the host cells.
(§2) Animals were subsequently divided into two groups that were either sacrificed following 14 days treatment (n=17 APP23 and n=13 wild-type, respectively) or received transplantation of HSNC into the lateral ventricle (n=13 APP23 mice and n=12 wild-type, respectively). […] Brains were removed, dissected into the hippocampus and cortex, and tissue samples were maintained on dry ice and stored at −80° C. until Western blotting and PCR experiments were performed. For the group of transplanted animals, these were transcardially perfused with PBS and 4% paraformaldehyde (pH 7.4). […]

A further experiment relates to APP mRNA. The experiment can be described thus: Real time RT-PCR analysis of APP gene expression in cortical and hippocampal tissues. The experiment is classed as in vivo. The conditions noted are these: both APP23 and wild-type mice. As for the experimental part: as §2, with “7.4). Brains were removed and post-fixed for 8-12 h in 4% paraformaldehyde, and cryoprotected in 20% sucrose-PBS overnight.” for “7.4).”
Total RNA from hippocampal and cortical tissues from each animal treated with either (+)-phenserine or saline was isolated with Trizol reagent (Invitrogen) according to the manufacturer's protocol. […] Relative quantification with Real-time PCR was determined using the MyiQ Real-Time PCR Detection System Software (Bio-Rad), and reactions were performed in a thermal iCycler using the Bio-Rad MyiQ IQ SYBR Green Supermix (Bio-Rad) according to the following conditions; denaturation of cDNA for 5 min at 94° C.; amplification (40 cycles) for 30 sec at 94° C., annealing at 56° C. for 30 sec, and extension at 72° C. for 30 sec, with a final extension at 72° C. for 5 min. […]
(In general: Real-time PCR tracks product formation cycle by cycle.)

The test system of experiment [2] is transplanted human neural stem cells (HNSCs). The experiment can be described thus: Glial differentiation of transplanted HNSCs (BrdU+/GFAP+ cell counts, fluorescent immunohistochemistry). The conditions noted are these: hippocampus of wild-type mice; 6 weeks after HNSC transplantation; 25 mg/kg. The experiment is classed as in vivo, APP23 and wild-type mice. As for the experimental part:
as §1, §2

For another experiment, the system named is cholinesterase. The settings on record: Greig et al., U.S. Patent Pub. 2004/0024043 and 2004/0138282; cited from earlier work.

The text below walks through data of patent US9095573B2, “Method of biasing implanted human neural stem cells away from differentiation into glial cells by (+)phenserine to modulate the concentration of soluble βAPP in tissue or CSF” (priority 2005, dated 2015).

(+)-phenserine: the “increase in number of BrdU+/β-III tubulin+ cells” value in experiment [1] turned out to be 40%. The “change in APP gene expression” value in the experiment on APP mRNA is “no significant changes”. Moreover, in experiment [2], the “difference in number of BrdU+/GFAP+ double immuno-positive cells” value is listed as “No significant differences”. The cholinesterase activity entry in the experiment with cholinesterase is given as “lacks cholinesterase activity”.
